How the values were obtained:
[1] = test system: IL-6 production in BV-2 cells; assay: ELISA quantitation of IL-6 production in BV-2 cells after stimulation with LPS; type: cell-based, murine; conditions: 1 h pretreatment with SHIP1 activator 10 μM, then LPS
Method: FIG. 3 presents an ELISA quantitation of IL-6 production in BV-2 cells after stimulation with LPS. BV-2 cells were plated and treated for 1 h with vehicle (Veh, 0.25% DMSO) or SHIP1 activator (10 μM in Veh) prior to addition of LPS (100 ng/ml). Unstimulated BV2 cells treated with Veh are shown as an additional control to assess LPS induction of IL-6. (A) Evaluation of 1, 26, 29 and 53. (B) In a separate experiment, 70, and 71 were evaluated under similar conditions. Bars indicate Mean G SEM; statistical tests: two-way ANOVA with Tukey correction, **** p<0.0001, ** p<0.01.
Given this experience, some of the new activators were evaluated in a cell-based setting. Using the immortalized BV-2 cell line, which is derived from murine microglia and retains many microglial morphological and functional characteristics of microglia, an assay for the anti-inflammatory effects of these activators was developed. This assay involved treatment of the cells with lipopolysaccharides (LPS) to induce IL-6 production which can then be quantified with an ELISA.
Cell culture: The BV2 cell line was obtained from the ATCC (American Type Culture Collection). The ATCC and performs genetic validation on deposited cell lines. For the inflammatory cytokines production studies, BV2 cells were cultured in DMEM/F12 (Corning) 10% HI FBS at 37° C. and 5% CO2 in a humidified incubator and split 1:6 every 3 days with Cellstripper™ (Corning). Cells were kept at 37° C. and 5% CO2 in a humidified incubator.
ELISA measurements: Parental (scrambled guide control) BV2 cells were seeded at 5×10^5/mL, […] in 48 well plate. Cell were treated with […] small molecule or vehicle control (0.5% DMSO) and incubated for 1 h before addition of stimuli. LPS (10 ng/ml, E. coli O111: B4, Sigma) was added to the cells and incubated for 6 h to detect IL-6 production. Supernatants were spun down at 400×g for 5 minutes to remove cell debris and froze at −20° C. for ELISAs. IL-6 levels were quantified from cellular supernatants with ELISA MAX™ Standard Set Mouse IL-6 kit (Biolegend), following manufacturer's recommendations. We detected absorbance at 450 nm and removed 570 nm background absorbance, with a plate reader (Synergy 2, BioTek). All experiments were repeated three times and each value was reported as mean±SEM from biological replicates in the same assay. All statistical analysis were performed using GraphPad Prism (version 9.2). Two-way ANOVA was used to analyze all data with two independent variables as time and treatment or concentration and treatment, data is reported as Mean+/−SEM.

[2] = biological target: T1, recombinant human truncated SHIP1 (tSHIP1) (Homo sapiens, UniProt Q92835); assay: Malachite Green Phosphatase Release Assay (SHIP1 phosphatase activity); type: biochemical; conditions: for Phosphatase activity in the Malachite Green Assay, analog concentration 125 μM: 125 μM analog; for Phosphatase activity in the Malachite Green Assay, analog concentration 125 μM / Phosphatase activity in the Malachite Green Assay, analog concentration 250 μM / Phosphatase activity in the Malachite Green Assay, analog concentration 500 μM: 100 μM PI(3,4,5)P3-diC8 substrate, normalized to vehicle control (DMSO) = 100%; for Phosphatase activity in the Malachite Green Assay, analog concentration 250 μM: 250 μM analog; for Phosphatase activity in the Malachite Green Assay, analog concentration 500 μM: 500 μM analog, >100% activation, <100% inhibition; for SHIP1 activator activity in the malachite green assay: discussion of Table 4 (125-500 μM)
T1 construct: tSHIP1 (SHIP1, residues 397-864) was amplified from pET24TEV-tSHIP1; His tag; made in house; host or cells: E. coli BL21
T1 sequence (Q92835 397-864): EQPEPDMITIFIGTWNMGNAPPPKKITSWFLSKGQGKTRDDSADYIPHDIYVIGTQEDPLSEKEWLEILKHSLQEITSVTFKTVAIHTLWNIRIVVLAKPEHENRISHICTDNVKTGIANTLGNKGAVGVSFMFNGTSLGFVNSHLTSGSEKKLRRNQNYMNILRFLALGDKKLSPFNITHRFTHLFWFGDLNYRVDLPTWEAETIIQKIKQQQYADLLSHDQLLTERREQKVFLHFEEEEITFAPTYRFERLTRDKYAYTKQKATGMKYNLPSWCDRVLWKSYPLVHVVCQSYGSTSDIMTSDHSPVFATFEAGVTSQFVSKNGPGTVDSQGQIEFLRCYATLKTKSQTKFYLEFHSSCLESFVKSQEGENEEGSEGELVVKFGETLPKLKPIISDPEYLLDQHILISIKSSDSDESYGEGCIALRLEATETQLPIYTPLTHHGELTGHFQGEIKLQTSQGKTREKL
Method: ^aPhosphatase activity for SHIP1 and SHIP2 enzyme as determined in the malachite green assay. Results were normalized to the phosphatase activity level from vehicle control (DMSO) used as 100% activity. Values >100% are attributed to activation, while values <100% show inhibition of the enzyme compared to the control. The assay was performed at the indicated concentration of the small molecule with 100 μM PI(3,4,5)P3-diC8 as the substrate. ^bnd=not determined, compound 23 was insoluble.
Cloning and expression of tSHIP1 of truncated human SHIP1 protein (tSHIP1) from human whole blood mRNA have been previously described (see Brooks R, Iyer, S., Akada, H., Neelam, S., Russo, C. M., Chisholm, J. D., and Kerr W. G. Coordinate Expansion of Murine Hematopoietic and Mesenchymal Stem Cell Compartments by SHIPi Stem Cells 2015; 33:848). Briefly, tSHIP1 (SHIP1, residues 397-864) was amplified from pET24TEV-tSHIP1. Plasmids were extracted with Midi Prep (Qiagen) and sequences were verified by sequencing of the entire expression regions. The plasmids were then transformed into E. coli BL21 (New England Biolabs). Fresh colonies were amplified in 1 L LB at 37° C., shaking at 250 rpm until OD600 nm reached 0.6. Protein expression was induced with […] IPTG and incubation was continued at 16° C., shaking at 250 rpm for 16 h. Following centrifugation, bacteria pellets were stored overnight at −20° C. Protein was extracted form bacterial cell pellet using BugBuster HT (Millipore), according to manufacturer's recommendations. The His-tagged protein was purified by FPLC using HisTrapHP 5 ml column (Cytiva Life Sciences) at a 5 ml/min flow rate and 10 mM-1M imidazole gradient in Buffer A (20 mM Tris pH 8.0, 300 mM NaCl, 10 mM imidazole, 5 mM β-mercaptoethanol). Fractions containing active protein by Malachite Green Phosphatase Release Assay (Echelon, see below) were pooled, concentrated and buffer exchanged to reduce imidazole concentration by centrifugation using Pierce Protein Concentrators 30KMWCO PES, (ThermoFisher Scientific). Protein was aliquoted and stored at −80° C. in a mixture of Buffer A (without β-ME) and 50% glycerol.
Malachite Green Phosphatase Release Assays: Malachite Green Phosphatase Release Assays (Echelon Biosciences) were performed with recombinant human truncated SHIP1 (tSHIP1) (Brooks, 2015) and SHIP2 (Echelon Biosciences). Briefly, serial dilutions of the compounds dissolved in DMSO were added to the recombinant enzymes diluted in reaction buffer Rx (50 mM Hepes pH 7.4, 150 mM NaCl, 1 mM MgCl2, 0.25 mM EDTA) in triplicate reactions in 96-well plates. Reactions were incubated for 2 min at room temperature. […] of 1 mM Phosphatidylinositol 3,4,5-trisphosphate diC8 (PI(3,4,5)P3diC8) (Echelon Biosciences) was added to each reaction to a final concentration of 100 μM in a final volume of […]. Following 20 min incubation at 37° C., 100 μL of Malachite Green Solution (Echelon Biosciences) was added to each well and plates were incubated at room temperature in the dark for 15 min. Plates were then read at 620 nm on a plate reader (Synergy 2, BioTek).

[3] = Solubility of the isolated solid in common solvents; type: physicochemical; conditions: DMSO, acetone, methanol, chloroform, and water
From the text: While most of the analogs in Table 1 were easy to handle, attempts to isolate the thiomorpholine sulfone 23 were problematic. During the final sulfonamide formation to access 23 an insoluble solid was formed and filtered from the reaction mixture. […] A combustion analysis did match the formula for the desired product, however given the insolubility of this substance it was not evaluated further.

SMILES	Phosphatase activity in the Malachite Green Assay, analog concentration 125 μM [2] [%]	Phosphatase activity in the Malachite Green Assay, analog concentration 250 μM [2] [%]	Phosphatase activity in the Malachite Green Assay, analog concentration 500 μM [2] [%]	SHIP1 activator activity in the malachite green assay [2]	Solubility [3]	IL-6 production induced by LPS [1]
CCCCNS(=O)(=O)c1cc(NC(=O)CNS(=O)(=O)c2ccc(F)cc2)c(C)s1 [Compound K382, N-[5-(Butylsulfamoyl)-2-methylthiophen-3-yl]-2-(4-fluorobenzenesulfonamido) acetamide]	124	124	122	–	–	especially significant reductions of IL-6 production
Cc1sc(S(=O)(=O)N2CCCCC2)cc1NC(=O)CNS(=O)(=O)c1ccc(F)cc1 [Compound K368, 2-(4-Fluorobenzenesulfonamido)-N-[2-methyl-5-(piperidine-1-sulfonyl)thiophen-3-yl]acetamide]	116	119	128	nearly as active as K306	–	especially significant reductions of IL-6 production
Cc1sc(S(=O)(=O)N2CCS(=O)(=O)CC2)cc1NC(=O)CNS(=O)(=O)c1ccc(F)cc1 [Compound 23]	–	–	–	–	insoluble in any solvent	–

More lines, main results first:

Phosphatase activity in the Malachite Green Assay, analog concentration 125 μM [2] [%]	Phosphatase activity in the Malachite Green Assay, analog concentration 250 μM [2] [%]	Phosphatase activity in the Malachite Green Assay, analog concentration 500 μM [2] [%]	SHIP1 activator activity in the malachite green assay [2]	Solubility [3]	SMILES	IL-6 production induced by LPS [1]
107	127	130	significant activity at 250 μM	–	Cc1sc(S(=O)(=O)N2CCSCC2)cc1NC(=O)[C@@H]1CCCN1S(=O)(=O)c1ccc(F)cc1 [Compound K408]	significant decrease in IL-6 formation
106	108	139	good activator activity	–	Cc1sc(S(=O)(=O)N2CCSCC2)cc1NC(=O)CNS(=O)(=O)c1ccccc1C(F)(F)F [Compound K403, N-[2-methyl-5-(thiomorpholine-4-sulfonyl)thiophen-3-yl]-2-(2-trifluoromethylbenzenesulfonamido) acetamide]	significant activity

Source: patent US20260199365A1, “BIS-SULFONAMIDE SHIP1 ACTIVATORS” (The Research Foundation for the State University of New York, priority 2022, published 2026)
